Measurements taken from US8415156B2, “Recombinant laminin-521” (Biolamina AB, priority 2010, dated 2013).

System: Akt and MEK1
Experiment: Western blot of pathway inhibitor treated cells
Assay type: cell-based, human
Conditions: cells collected one hour after plating on LN-521, vs DMSO control
Source text: InSolutionTM LY 294002 (a specific […]), InSolutionTM Wortmannin (a specific PI3K inhibitor), and InSolutionTM 98059 (a specific MEK1/Erk inhibitor) were purchased from Calbiochem. Antibodies to phospho-Akt (#4060), total-Akt (#9272), phospho-Erk (#9101), and total-Erk (#9102) were obtained from Cell Signaling Technology. PathScan Phospho-Akt1 sandwich ELISA kit (#7160), PathScan total Akt1 sandwich ELISA kit (#7170), PathScan Phospho-Akt2 sandwich ELISA kit (#7048), and PathScan total Akt2 sandwich ELISA kit (#7046) were also purchased from Cell Signaling Technology. Antibodies to Calnexin (#ab10286) were obtained from Abcam. Function blocking antibodies to various integrin subunits, mouse isotype antibodies, and α-dystroglycan were purchased from Millipore. Since function blocking antibodies to αV (MAB1980) and α6 (MAB1378) were presented in a solution with sodium azide, before the inhibition of survival experiment all the antibodies to alpha integrin subunits were dialyzed thrice against O3 medium for 2 hours each time. Antibodies to Lutheran receptor and α-fetoprotein, as well as rat isotype control antibodies were obtained from R&D Systems. Antibodies to Oct4, Nanog, SSEA-4, smooth muscle actin and MAP-2 were purchased from Millipore. […] For the densitometry analysis the films were scanned at 2,400 dpi and analyzed by the […]5500 program (1D-Multi Line densitometry mode). […]

With `COc1cccc(-c2cc(=O)c3ccccc3o2)c1N` [PD 98059] the “efficacy of inhibitor treatment by western blot” value was “confirmed”.
